From article PMC7407945, “Ranacyclin-NF, a Novel Bowman–Birk Type Protease Inhibitor from the Skin Secretion of the East Asian Frog, Pelophylax nigromaculatus” (Biology, 2020)
≈ marks a conversion by molar mass, not a printed value. Read-outs that look alike come from different tables or passages of the source. Bridge positions count the residues as written; N and C are the ends. Ends that are not written are not given here. Peptide text beside a SMILES is read from it.

Key:
[1] = test system: MRSA; assay: Checkerboard assay, peptide with Gentamicin; assay type: cell-based, Staphylococcus aureus; conditions: for MIC: Staphylococcus aureus, 18 h
Experimental: Then, the microorganism cultures (1 × 10^6 cfu/mL) were inoculated into the plate wells and incubated at 37 °C for 18 h. The optical densities of the cultures were measured using an ELISA plate reader (Biotech Minneapolis, MN, USA). The lowest cumulative fractional inhibitory concentration (ΣFIC) was calculated with the following equation:(1) ΣFIC=Compound A treated in combination/Compound A, test in alone+Compound B treated in combination/Compound B, test in alone
ΣFIC ≤ 0.5 indicates synergy; 0.5 < Σ FIC ≤ 4 indicates an additive effect; and Σ FIC > 4 represents an antagonistic effect.

[2] = test system: Staphylococcus aureus (NCTC 10788); conditions: doubling-dilution method, up to 512 µM
[3] = test system: Enterococcus faecalis (NCTC 12697); conditions: doubling-dilution method, up to 512 µM
[4] = test system: Pseudomonas aeruginosa (ATTC 27853); conditions: doubling-dilution method, up to 512 µM
[5] = test system: Methicillin-resistant Staphylococcus aureus (MRSA) (NCTC 12493); conditions: doubling-dilution method, up to 512 µM
[6] = biological target: T1, trypsin (Bos taurus, UniProt P00760); assay: Trypsin inhibition assay; assay type: biochemical; conditions: substrate Phe-Pro-Arg-AMC
T1 construct: gene PRSS1
T1 sequence (P00760 24-246): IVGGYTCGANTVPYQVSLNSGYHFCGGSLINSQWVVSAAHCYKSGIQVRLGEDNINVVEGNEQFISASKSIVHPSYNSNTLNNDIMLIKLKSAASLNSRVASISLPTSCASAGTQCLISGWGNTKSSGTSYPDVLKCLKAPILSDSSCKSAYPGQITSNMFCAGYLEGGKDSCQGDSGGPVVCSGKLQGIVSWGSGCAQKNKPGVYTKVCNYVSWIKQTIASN
Experimental: (§1) Trypsin and chymotrypsin inhibition assays were performed as previously described. The substrate of trypsin and chymotrypsin were Phe-Pro-Arg-AMC and Succinyl-Ala-Ala-Pro-Phe-NHMec, respectively, and obtained from Bachem, Merseyside, UK. In the tryptase inhibition assay, peptide samples were first dissolved in tryptase assay buffer pH 7.6, containing 0.05 M Tris, 0.15 M NaCl and 0.2% (w/v) PEG 6000 (final volume 210 μL) to obtain different concentrations of 0.5, 1, 2 and 4 mM and then added to the wells of a black 96-well plate containing (Boc-Phe-Ser-Arg-NHMec, obtained from Bachem, Merseyside, UK) (50 μM). Before measurement, tryptase (2.5 μL from 1 mg/mL stock solution, Calbiochem, Nottingham, UK) was added to each well. The rate of hydrolysis of substrate was monitored continuously at 37 °C and 460 nm with a Fluostar Optima plate reader (BMG Labtech GmbH, Offenburg, Germany)

[7] = test system: Candida albicans (NCPF 1467); conditions: doubling-dilution method, up to 512 µM
[8] = test system: Klebsiella pneumoniae (ATCC43816); conditions: doubling-dilution method, up to 512 µM
[9] = biological target: T2, tryptase (Homo sapiens, UniProt Q15661); assay: Tryptase inhibition assay; assay type: biochemical; conditions: substrate Boc-Phe-Ser-Arg-NHMec 50 μM; pH 7.6, 0.05 M Tris, 0.15 M NaCl, 0.2% PEG 6000; 37 °C; 460 nm
T2 construct: purchased Calbiochem, Nottingham, UK
T2 sequence (Q15661 31-275): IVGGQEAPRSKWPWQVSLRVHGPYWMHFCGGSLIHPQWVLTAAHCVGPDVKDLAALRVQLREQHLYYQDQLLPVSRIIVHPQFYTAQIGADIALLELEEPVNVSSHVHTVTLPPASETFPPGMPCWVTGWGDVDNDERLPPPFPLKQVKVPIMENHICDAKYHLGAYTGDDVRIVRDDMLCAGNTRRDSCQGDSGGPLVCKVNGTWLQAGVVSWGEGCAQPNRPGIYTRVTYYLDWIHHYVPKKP
Experimental: as §1

[10] = test system: Escherichia coli (NCTC 10418); conditions: doubling-dilution method, up to 512 µM
[11] = biological target: T3, chymotrypsin (Bos taurus, UniProt P00766); assay: Chymotrypsin inhibition assay; assay type: biochemical; parameters: key: N.I.: there was no inhibitory activity; conditions: substrate Succinyl-Ala-Ala-Pro-Phe-NHMec
Experimental: as §1

[12] = test system: HaCaT cells (human keratinocyte cell line); conditions: MTT, 24 h, 10^−9 to 10^−4 M; result in words
Experimental: (§2) Cells (5 × 10^3 cells/mL) were seeded into 96-well plates with FBS-containing fresh medium for 24 h. After that, cells were treated with corresponding serum-free culture medium for 12 h. […] After exposure for 6 h, all liquid was removed and 100 µL of DMSO was added. Finally, the absorbance of samples at 570 nm was determined using an ELISA plate reader (Biotech, Minneapolis, MN, USA).

[13] = test system: human normal cell lines; conditions: MTT, 24 h, highest concentration tested 100 µM; result in words
Experimental: as §2

[14] = test system: HMEC-1 cells (human microvascular endothelial cell line); conditions: MTT, 24 h, 10^−9 to 10^−4 M; result in words
Experimental: as §2

[15] = biological target: T2, tryptase; conditions: cited from earlier work; for tryptase inhibitory activity: result in words
From the text: Therefore, the emergence of a novel tryptase inhibitor would be an asset in the treatment of some clinical diseases. […] Some publications believe that protease inhibitors cannot work effectively when it comes t ...

[16] = biological target: T3, chymotrypsin; parameters: method as in 2 sources, ref 24 = [24]; PMID 28356487; doi:10.1042/BSR20160593; 24. Wu Y. Long Q. Xu Y. Guo S. Chen T. Wang L. Zhou M. Zhang Y. Shaw C. Walker B. A structural and functional analogue of a Bowman–Birk-type protease inhibitor from Odorrana schmackeri Biosci. Rep. 20 ||| ref 32 = [32]; PMID 31337113; doi:10.3390/biom9070280; 32. Miao Y. Chen G. Xi X. Ma C. Wang L. Burrows J. Duan J. Zhou M. Chen T. Discovery and Rational Design of a Novel Bowman-Birk Related Protease Inhibitor Biomolecules 2019 9 280 10.3390/biom9070280 3; key: N.I.: there was no inhibitory activity; conditions: cited from earlier work
[17] = biological target: T1, trypsin; conditions: cited from earlier work
From the text: Amino acid residues at P5′ are shaded. | column: Trypsin Inhibition Ki (nM) || In previous studies, extensive studies have been made to reveal the role played by each residue within the TIL in overall enzyme inhibitory activity. However, factors outside this conserved disulphide loop, which may affect trypsin inhibition activity, have rarely been studied. In 2012, Wang et al. discovered the peptide, HJTI, and designed one molecular variant to study the role that cationicity played in trypsin inhibitory potency. They believed that structural features, especially for amino acid residues lying outside the TIL, were crucial in modulating the effectiveness of trypsin inhibito ...

[18] = test system: bacteria; conditions: result in words; cited from earlier work
From the text: (§3) Therefore, ranacyclins firstly approach to the membrane surface through hydrophobic interaction and then, at sites where peptide concentrations reach a threshold, insert into the hydrophobic core of the membrane bilaye ...

[19] = result in words; cited from earlier work
From the text: as §3

CNC(C)C1CCC(N)C(OC2C(N)CC(N)C(OC3OCC(C)(O)C(NC)C3O)C2O)O1 (stereo not drawn) [Gentamicin]
MIC ([1]; read-out: MIC of Gentamicin against MRSA, Gentamicin alone, 37 °C, 18 h): 2 µM | MIC ([1]; read-out: MIC of Gentamicin against MRSA, in the presence of RNF and its analogues, 37 °C, 18 h): 1 µM

C[C@H](NC(=O)CN)C(=O)N1CCC[C@H]1C(=O)N[C@@H](CCCNC(=N)N)C(=O)NCC(=O)N[C@H]1CSSC[C@@H](C(=O)N[C@@H](Cc2ccccc2)C(=O)O)NC(=O)[C@@H]2CCCN2C(=O)[C@H](CCC(N)=O)NC(=O)[C@@H]2CCCN2C(=O)[C@@H]2CCCN2C(=O)[C@H](Cc2ccc(O)cc2)NC(=O)[C@H](CO)NC(=O)[C@H](CCCCN)NC(=O)[C@H]([C@@H](C)O)NC(=O)[C@H](Cc2c[nH]c3ccccc23)NC1=O [RNF1] (H-GAPRGCWTKSYPPQPCF-OH; disulfide 6-16)
MBC S. aureus [2]: > 512 µM | MIC S. aureus [2]: > 512 µM | MBC E. faecalis [3]: > 512 µM | MIC E. faecalis [3]: > 512 µM | MBC P. aeruginosa [4]: > 512 µM | MIC P. aeruginosa [4]: > 512 µM | MBC MRSA [5]: > 512 µM | MIC MRSA [5]: > 512 µM | Ki [6]: 1.3 µM | MBC C. albicans [7]: > 512 µM | MIC C. albicans [7]: > 512 µM | MBC K. pneumoniae [8]: > 512 µM | MIC K. pneumoniae [8]: > 512 µM | Ki [9]: 9.06 µM | MBC E. coli [10]: > 512 µM | MIC E. coli [10]: > 512 µM

CC(C)C[C@H](NC(=O)[C@H](C)NC(=O)CN)C(=O)N[C@@H](CCCNC(=N)N)C(=O)NCC(=O)N[C@H]1CSSC[C@@H](C(=O)N[C@@H](Cc2ccccc2)C(N)=O)NC(=O)[C@@H]2CCCN2C(=O)[C@H](CCC(N)=O)NC(=O)[C@@H]2CCCN2C(=O)[C@@H]2CCCN2C(=O)[C@H](Cc2ccc(O)cc2)NC(=O)[C@H](CO)NC(=O)[C@H](CCCCN)NC(=O)[C@H]([C@@H](C)O)NC(=O)[C@H](Cc2c[nH]c3ccccc23)NC1=O [RNF3L] (H-GALRGCWTKSYPPQPCF-NH2; disulfide 6-16; N-terminus assumed)
effect of the combination with Gentamicin ([1]; peptide with Gentamicin, class by ΣFIC): additive effect (0.5 < Σ FIC ≤ 4 indicates an additive effect) | Ki(µM) of Chymotrypsin [11]: N.I.

C[C@H](NC(=O)CN)C(=O)N1CCC[C@H]1C(=O)N[C@@H](CCCNC(=N)N)C(=O)NCC(=O)N[C@H]1CSSC[C@@H](C(=O)N[C@@H](Cc2ccccc2)C(N)=O)NC(=O)[C@@H]2CCCN2C(=O)[C@H](CCC(N)=O)NC(=O)[C@@H]2CCCN2C(=O)[C@@H]2CCCN2C(=O)[C@H](Cc2ccc(O)cc2)NC(=O)[C@H](CO)NC(=O)[C@H](CCCCN)NC(=O)[C@H]([C@@H](C)O)NC(=O)[C@H](Cc2c[nH]c3ccccc23)NC1=O [RNF] (H-GAPRGCWTKSYPPQPCF-NH2; disulfide 6-16)
MBC S. aureus [2]: > 512 µM | MIC S. aureus [2]: 512 µM (≈ 969 µg/mL) | MBC E. faecalis [3]: > 512 µM | MIC E. faecalis [3]: > 512 µM | MBC P. aeruginosa [4]: > 512 µM | MIC P. aeruginosa [4]: > 512 µM | cytotoxicity on HaCaT [12]: negligible cytotoxicity | cytotoxicity [13]: negligible direct cytotoxicity | cytotoxicity on HMEC-1 [14]: negligible cytotoxicity | MBC MRSA [5]: > 512 µM | MIC MRSA [5]: > 512 µM | Ki [6]: 0.447 µM | MBC C. albicans [7]: > 512 µM | MIC C. albicans [7]: > 512 µM | MBC K. pneumoniae [8]: > 512 µM | MIC K. pneumoniae [8]: > 512 µM | Ki [9]: 6.77 µM | MBC E. coli [10]: > 512 µM | MIC E. coli [10]: > 512 µM

AALKGCWTKSIPPKPCF-NH2 (disulfide 6-16 (inferred)) [OSTI]
tryptase inhibitory activity [15]: obvious tryptase inhibitory activity | Ki(µM) of Chymotrypsin [16]: N.I.

AALKGCWTKSIPPKPCF-NH2 (disulfide) (disulfide 6-16; N-terminus assumed; SMILES CC[C@H](C)[C@@H]1NC(=O)[C@H](CO)NC(=O)[C@H](CCCCN)NC(=O)[C@H]([C@@H](C)O)NC(=O)[C@H](Cc2c[nH]c3ccccc23)NC(=O)[C@@H](NC(=O)CNC(=O)[C@H](CCCCN)NC(=O)[C@H](CC(C)C)NC(=O)[C@H](C)NC(=O)[C@H](C)N)CSSC[C@@H](C(=O)N[C@@H](Cc2ccccc2)C(N)=O)NC(=O)[C@@H]2CCCN2C(=O)[C@H](CCCCN)NC(=O)[C@@H]2CCCN2C(=O)[C@@H]2CCCN2C1=O) [OSTI]
Ki [17]: 0.0003 µM | Ki [15]: 2.5 µM

ALRGCWTKSIPPKPCP-NH2 (disulfide 5-15 (inferred)) [PPF-BBI]
tryptase inhibitory activity [15]: obvious tryptase inhibitory activity | Ki(µM) of Chymotrypsin [16]: N.I.

ALRGCWTKSIPPKPCP-NH2 (disulfide) (disulfide 5-15; N-terminus assumed; SMILES CC[C@H](C)[C@@H]1NC(=O)[C@H](CO)NC(=O)[C@H](CCCCN)NC(=O)[C@H]([C@@H](C)O)NC(=O)[C@H](Cc2c[nH]c3ccccc23)NC(=O)[C@@H](NC(=O)CNC(=O)[C@H](CCCNC(=N)N)NC(=O)[C@H](CC(C)C)NC(=O)[C@H](C)N)CSSC[C@@H](C(=O)N2CCC[C@H]2C(N)=O)NC(=O)[C@@H]2CCCN2C(=O)[C@H](CCCCN)NC(=O)[C@@H]2CCCN2C(=O)[C@@H]2CCCN2C1=O) [PPF-BBI]
Ki [17]: 0.17 µM | Ki [15]: 30.7 µM

GALRGCWTKSYPPKPCK-NH2 (disulfide 6-16 (inferred)) [Ranacyclin-T]
antimicrobial activity with respect to RNF [18]: relatively stronger antimicrobial activity | secondary structure [19]: beta-sheet structure

GALRGCWTKSYPPKPCK-NH2 (disulfide) (disulfide 6-16) [Ranacyclin-T]
Ki [17]: 0.116 µM

GAPKGCWTKSYPPQPCS-NH2 (disulfide) (disulfide 6-16; N-terminus assumed; SMILES C[C@H](NC(=O)CN)C(=O)N1CCC[C@H]1C(=O)N[C@@H](CCCCN)C(=O)NCC(=O)N[C@H]1CSSC[C@@H](C(=O)N[C@@H](CO)C(N)=O)NC(=O)[C@@H]2CCCN2C(=O)[C@H](CCC(N)=O)NC(=O)[C@@H]2CCCN2C(=O)[C@@H]2CCCN2C(=O)[C@H](Cc2ccc(O)cc2)NC(=O)[C@H](CO)NC(=O)[C@H](CCCCN)NC(=O)[C@H]([C@@H](C)O)NC(=O)[C@H](Cc2c[nH]c3ccccc23)NC1=O) [HJTI, Odorrana hejiangensis]
Ki [17]: 0.388 µM
